Results taken from paper PMC6747225 (International Journal of Environmental Research and Public …, 2019).

Key:
CY2D6 enzyme = conditions: humans and mammals; cited from earlier work
[1] = system: superoxide dismutase (SOD); assay: Superoxide dismutase (SOD) activity in fish liver; type: in vivo, Carassius auratus; conditions: SER alone 5 μg·L^−1 compared to control, seven days
Method: A dechlorinated water control treatment and solvent control treatment (0.1% methanol) were also set in the exposure treatments. Each treatment was prepared in six replicate tanks (30 L) with four fish per tank. Fish were not fed during the exposure period. The exposure solutions were refreshed every 24 h. After the exposure experiment, six fish were sampled in each treatment for biochemical assay and chemical analysis. The liver, brain, gills, and muscle were dissected, immediately frozen in liquid nitrogen, and stored at −80 °C until the assays. The remaining 18 fish in each treatment were used for behavioral trials at the end of exposure.
The tissue sample was homogenized in chilled physiological saline solution (1:10, w/v). The homogenates were then centrifuged for 10 min (10,000 g) at 4 °C. The obtained supernatant was used to determine enzyme activity, MDA content, and protein concentration using bioassay kits according to the manufacturer’s protocol. Enzyme activity is reported as unit (U) mg^−1 protein, and MDA content is expressed in nmol mg^−1 protein.

CN(C)CCOC(c1ccccc1)c1ccccc1 [DPH, diphenhydramine]
Inhibition of the CY2D6 enzyme (CY2D6 enzyme): strong inhibitor

CN[C@H]1CC[C@@H](c2ccc(Cl)c(Cl)c2)c2ccccc21 [SER, sertraline]
SOD activity [1]: not significantly changed
